Results from ChEMBL document CHEMBL2380196, “New anticancer active and selective phenylene-bisbenzothiazoles: synthesis, antiproliferative evaluation and DNA binding” (Eur J Med Chem, 2013).
pIC50: −log10 of the molar value.

Experiments:
HeLa [1] = test: Cell cycle arrest in human HeLa cells assessed as accumulation in sub-G1 phase at 5 uM after 48 hrs using propidium iodide staining by flow cytometry relative to control; assay type: functional
SK-BR-3 [2] = test: Cell cycle arrest in human SKBR3 cells assessed as accumulation in S phase at 5 uM after 48 hrs using propidium iodide staining by flow cytometry relative to control; assay type: functional
SK-BR-3 [3] = test: Cell cycle arrest in human SKBR3 cells assessed as accumulation in sub-G1 phase at 10 uM after 24 hrs using propidium iodide staining by flow cytometry relative to control; assay type: functional
HeLa [4] = test: Cell cycle arrest in human HeLa cells assessed as accumulation in G2/M phase at 10 uM after 24 hrs using propidium iodide staining by flow cytometry relative to control; assay type: functional
SK-BR-3 [5] = test: Cell cycle arrest in human SKBR3 cells assessed as accumulation in S phase at 10 uM after 24 hrs using propidium iodide staining by flow cytometry relative to control; assay type: functional
MIA PaCa-2 [6] = test: Cell cycle arrest in human MIAPaCa2 cells assessed as accumulation in S phase at 5 uM after 48 hrs using propidium iodide staining by flow cytometry relative to control; assay type: functional
MIA PaCa-2 [7] = test: Cell cycle arrest in human MIAPaCa2 cells assessed as accumulation in S phase at 10 uM after 48 hrs using propidium iodide staining by flow cytometry relative to control; assay type: functional
SK-BR-3 [8] = test: Cell cycle arrest in human SKBR3 cells assessed as accumulation in G2/M phase at 5 uM after 24 hrs using propidium iodide staining by flow cytometry relative to control; assay type: functional
SK-BR-3 [9] = test: Antiproliferative activity against human SKBR3 cells after 72 hrs by MTT assay; assay type: functional, cell-based; settings: SK-BR-3, 72 h; for CC50: read-out: LC50 (the source's name)
HeLa [10] = test: Cell cycle arrest in human HeLa cells assessed as accumulation in G1 phase at 10 uM after 48 hrs using propidium iodide staining by flow cytometry relative to control; assay type: functional
MIA PaCa-2 [11] = test: Cell cycle arrest in human MIAPaCa2 cells assessed as accumulation in G1 phase at 10 uM after 48 hrs using propidium iodide staining by flow cytometry relative to control; assay type: functional
SK-BR-3 [12] = test: Induction of apoptosis in human SKBR3 cells at 10 uM after 48 hrs using propidium iodide/Annexin-V staining by flow cytometry relative to control; assay type: functional
SW-620 = test: Antiproliferative activity against human SW620 cells after 72 hrs by MTT assay; assay type: functional, cell-based; settings: SW-620, 72 h; for CC50: read-out: LC50 (the source's name)
HeLa [13] = test: Cell cycle arrest in human HeLa cells assessed as accumulation in S phase at 5 uM after 48 hrs using propidium iodide staining by flow cytometry relative to control; assay type: functional
HeLa [14] = test: Cell cycle arrest in human HeLa cells assessed as accumulation in G1 phase at 5 uM after 48 hrs using propidium iodide staining by flow cytometry relative to control; assay type: functional
SK-BR-3 [15] = test: Induction of apoptosis in human SKBR3 cells at 10 uM after 24 hrs using propidium iodide/Annexin-V staining by flow cytometry relative to control; assay type: functional
HeLa [16] = test: Cell cycle arrest in human HeLa cells assessed as accumulation in S phase at 10 uM after 48 hrs using propidium iodide staining by flow cytometry relative to control; assay type: functional
SK-BR-3 [17] = test: Cell cycle arrest in human SKBR3 cells assessed as accumulation in G1 phase at 5 uM after 24 hrs using propidium iodide staining by flow cytometry relative to control; assay type: functional
DNA = test: Binding affinity to calf thymus DNA assessed as change in melting temperature at 0.25 drug/DNA ratio by spectrophotometer analysis; assay type: nucleic-acid assay; settings: Bos taurus
SK-BR-3 [18] = test: Cell cycle arrest in human SKBR3 cells assessed as accumulation in sub-G1 phase at 5 uM after 24 hrs using propidium iodide staining by flow cytometry relative to control; assay type: functional
MIA PaCa-2 [19] = test: Cell cycle arrest in human MIAPaCa2 cells assessed as accumulation in sub-G1 phase at 10 uM after 24 hrs using propidium iodide staining by flow cytometry relative to control; assay type: functional
MIA PaCa-2 [20] = test: Cell cycle arrest in human MIAPaCa2 cells assessed as accumulation in sub-G1 phase at 5 uM after 48 hrs using propidium iodide staining by flow cytometry relative to control; assay type: functional
MIA PaCa-2 [21] = test: Cell cycle arrest in human MIAPaCa2 cells assessed as accumulation in S phase at 5 uM after 24 hrs using propidium iodide staining by flow cytometry relative to control; assay type: functional
SK-BR-3 [22] = test: Cell cycle arrest in human SKBR3 cells assessed as accumulation in G2/M phase at 10 uM after 24 hrs using propidium iodide staining by flow cytometry relative to control; assay type: functional
HeLa [23] = test: Cell cycle arrest in human HeLa cells assessed as accumulation in S phase at 5 uM after 24 hrs using propidium iodide staining by flow cytometry relative to control; assay type: functional
SK-BR-3 [24] = test: Cell cycle arrest in human SKBR3 cells assessed as accumulation in S phase at 5 uM after 24 hrs using propidium iodide staining by flow cytometry relative to control; assay type: functional
MIA PaCa-2 [25] = test: Cell cycle arrest in human MIAPaCa2 cells assessed as accumulation in sub-G1 phase at 5 uM after 24 hrs using propidium iodide staining by flow cytometry relative to control; assay type: functional
HeLa [26] = test: Cell cycle arrest in human HeLa cells assessed as accumulation in G2/M phase at 5 uM after 24 hrs using propidium iodide staining by flow cytometry relative to control; assay type: functional
SK-BR-3 [27] = test: Cell cycle arrest in human SKBR3 cells assessed as accumulation in sub-G1 phase at 10 uM after 48 hrs using propidium iodide staining by flow cytometry relative to control; assay type: functional
MIA PaCa-2 [28] = test: Cell cycle arrest in human MIAPaCa2 cells assessed as accumulation in G2/M phase at 10 uM after 24 hrs using propidium iodide staining by flow cytometry relative to control; assay type: functional
HeLa [29] = test: Cell cycle arrest in human HeLa cells assessed as accumulation in S phase at 10 uM after 24 hrs using propidium iodide staining by flow cytometry relative to control; assay type: functional
MCF7 = test: Antiproliferative activity against human MCF7 cells after 72 hrs by MTT assay; assay type: functional, cell-based; settings: MCF7, 72 h; for CC50: read-out: LC50 (the source's name)
SK-BR-3 [30] = test: Cell cycle arrest in human SKBR3 cells assessed as accumulation in G2/M phase at 5 uM after 48 hrs using propidium iodide staining by flow cytometry relative to control; assay type: functional
MIA PaCa-2 [31] = test: Cell cycle arrest in human MIAPaCa2 cells assessed as accumulation in G1 phase at 5 uM after 48 hrs using propidium iodide staining by flow cytometry relative to control; assay type: functional
MIA PaCa-2 [32] = test: Antiproliferative activity against human MIAPaCa2 cells after 72 hrs by MTT assay; assay type: functional, cell-based; settings: MIA PaCa-2, 72 h; for CC50: read-out: LC50 (the source's name)
MIA PaCa-2 [33] = test: Cell cycle arrest in human MIAPaCa2 cells assessed as accumulation in G2/M phase at 5 uM after 48 hrs using propidium iodide staining by flow cytometry relative to control; assay type: functional
HeLa [34] = test: Cell cycle arrest in human HeLa cells assessed as accumulation in sub-G1 phase at 10 uM after 48 hrs using propidium iodide staining by flow cytometry relative to control; assay type: functional
MIA PaCa-2 [35] = test: Cell cycle arrest in human MIAPaCa2 cells assessed as accumulation in S phase at 10 uM after 24 hrs using propidium iodide staining by flow cytometry relative to control; assay type: functional
HeLa [36] = test: Antiproliferative activity against human HeLa cells after 72 hrs by MTT assay; assay type: functional, cell-based; settings: for CC50: read-out: LC50 (the source's name)

Cl.Cl.c1cc2nc(-c3ccc(-c4nc5ccc(C6=NCCN6)cc5s4)cc3)sc2cc1C1=NCCN1 gave an Activity (HeLa [1]) of 22.7%, an Activity (SK-BR-3 [2]) of 32.6% and an Activity (SK-BR-3 [3]) of 31.6%. The Activity (HeLa [4]) was 7.2%, the Activity (SK-BR-3 [5]) was 39.1% and the Activity (MIA PaCa-2 [6]) was 35.8%. For the same compound, the Activity (MIA PaCa-2 [7]) was 40.9%, the Activity (SK-BR-3 [8]) was 11.6% and the pIC50 (SK-BR-3 [9]) was 5.93. For the same compound, the CC50 (SK-BR-3 [9]) was 8.07 µM, the Activity (HeLa [10]) was 42.3% and the Activity (MIA PaCa-2 [11]) was 40.6%. For the same compound, the Activity (SK-BR-3 [12]) was 15%, the pIC50 (SW-620) was 5.12 and the CC50 (SW-620) was > 100 µM. It also gave an Activity (HeLa [13]) of 49.6%, an Activity (HeLa [14]) of 31.9% and an Activity (SK-BR-3 [15]) of 5%. It also gave an Activity (HeLa [16]) of 44%, an Activity (SK-BR-3 [17]) of 58.9% and a ΔTm (DNA) of 3.9 °C. The Activity (SK-BR-3 [18]) was 15.8%, the Activity (MIA PaCa-2 [19]) was 33.1% and the Activity (MIA PaCa-2 [20]) was 35.7%. It also gave an Activity (MIA PaCa-2 [21]) of 55%, an Activity (SK-BR-3 [22]) of 14.5% and an Activity (HeLa [23]) of 44.5%. It also gave an Activity (SK-BR-3 [24]) of 33.5%, an Activity (MIA PaCa-2 [25]) of 34.4% and an Activity (HeLa [26]) of 13.4%. The Activity (SK-BR-3 [27]) was 32.1%, the Activity (MIA PaCa-2 [28]) was 19% and the Activity (HeLa [29]) was 58.7%. For the same compound, the pIC50 (MCF7) was 5.51, the CC50 (MCF7) was > 100 µM and the Activity (SK-BR-3 [30]) was 13.8%. For the same compound, the Activity (MIA PaCa-2 [31]) was 45.9%, the pIC50 (MIA PaCa-2 [32]) was 5.45 and the CC50 (MIA PaCa-2 [32]) was 36.7 µM. It also gave an Activity (MIA PaCa-2 [33]) of 18.4%, an Activity (HeLa [34]) of 23.2% and an Activity (MIA PaCa-2 [35]) of 40.1%. For the same compound, the pIC50 (HeLa [36]) was 5.11 and the CC50 (HeLa [36]) was 71.1 µM.

Work on Cl.Cl.c1cc(-c2nc3ccc(C4=NCCN4)cc3s2)cc(-c2nc3ccc(C4=NCCN4)cc3s2)c1 yielded an Activity (HeLa [1]) of 13.3%, an Activity (SK-BR-3 [2]) of 44% and an Activity (SK-BR-3 [3]) of 23.1%. The Activity (HeLa [4]) was 2.1%, the Activity (SK-BR-3 [5]) was 62.1% and the Activity (MIA PaCa-2 [6]) was 30.8%. For the same compound, the Activity (MIA PaCa-2 [7]) was 50.8%, the Activity (SK-BR-3 [8]) was 4.2% and the pIC50 (SK-BR-3 [9]) was 7.40. It also gave a CC50 (SK-BR-3 [9]) of 0.87 µM, an Activity (HeLa [10]) of 20.4% and an Activity (MIA PaCa-2 [11]) of 42.8%. It also gave an Activity (SK-BR-3 [12]) of 75%, a pIC50 (SW-620) of 6.33 and a CC50 (SW-620) of 6.19 µM. It also gave an Activity (HeLa [13]) of 39.3%, an Activity (HeLa [14]) of 47.5% and an Activity (SK-BR-3 [15]) of 8%. The Activity (HeLa [16]) was 71.4%, the Activity (SK-BR-3 [17]) was 34.5% and the ΔTm (DNA) was 12.8 °C. The Activity (SK-BR-3 [18]) was 33.3%, the Activity (MIA PaCa-2 [19]) was 8.1% and the Activity (MIA PaCa-2 [20]) was 20.4%. For the same compound, the Activity (MIA PaCa-2 [21]) was 33.6%, the Activity (SK-BR-3 [22]) was 17.8% and the Activity (HeLa [23]) was 38.4%. The Activity (SK-BR-3 [24]) was 58.9%, the Activity (MIA PaCa-2 [25]) was 17.7% and the Activity (HeLa [26]) was 24%. It also gave an Activity (SK-BR-3 [27]) of 12.5%, an Activity (MIA PaCa-2 [28]) of 21.3% and an Activity (HeLa [29]) of 66.3%. For the same compound, the pIC50 (MCF7) was < 4.00, the CC50 (MCF7) was 5.3 µM and the Activity (SK-BR-3 [30]) was 21.1%. It also gave an Activity (MIA PaCa-2 [31]) of 52.1%, a pIC50 (MIA PaCa-2 [32]) of 6.59 and a CC50 (MIA PaCa-2 [32]) of 1.49 µM. For the same compound, the Activity (MIA PaCa-2 [33]) was 17.1%, the Activity (HeLa [34]) was 15.5% and the Activity (MIA PaCa-2 [35]) was 49.1%. The pIC50 (HeLa [36]) was 5.69 and the CC50 (HeLa [36]) was 7.38 µM.
